Reference: ChEMBL document CHEMBL1799949, “Enantioselective binding of second generation pyrrolobenzoxazepinones to the catalytic ternary complex of HIV-1 RT wild-type and L100I and K103N drug resistant mutants” (Bioorg Med Chem Lett, 2011)

Legend:
[1] = target: T1, Human immunodeficiency virus type 1 reverse transcriptase (Human immunodeficiency virus 1, UniProt Q72547, V179D); assay: Inhibition of HIV1 reverse transcriptase V179D mutant
[2] = target: T2, Human immunodeficiency virus type 1 reverse transcriptase (Human immunodeficiency virus 1, UniProt Q72547, L100I); assay: Inhibition of HIV1 reverse transcriptase L100I mutant
[3] = target: T3, Human immunodeficiency virus type 1 reverse transcriptase (Human immunodeficiency virus 1, UniProt Q72547); assay: Inhibition of HIV1 wild type reverse transcriptase
[4] = target: T4, Human immunodeficiency virus type 1 reverse transcriptase (Human immunodeficiency virus 1, UniProt Q72547, K103N); assay: Inhibition of HIV1 reverse transcriptase K103N mutant
[5] = target: T1, Human immunodeficiency virus type 1 reverse transcriptase; assay: Inhibition of HIV1 reverse transcriptase V179D mutant/poly(rA)/oligo(dT) DNA binary complex
[6] = target: T2, Human immunodeficiency virus type 1 reverse transcriptase; assay: Inhibition of HIV1 reverse transcriptase L100I mutant/poly(rA)/oligo(dT) DNA binary complex
[7] = target: T3, Human immunodeficiency virus type 1 reverse transcriptase; assay: Inhibition of HIV1 wild type reverse transcriptase/poly(rA)/oligo(dT) DNA/dTTP ternary complex
[8] = target: T2, Human immunodeficiency virus type 1 reverse transcriptase; assay: Inhibition of HIV1 reverse transcriptase L100I mutant/poly(rA)/oligo(dT) DNA/dTTP ternary complex
[9] = target: T3, Human immunodeficiency virus type 1 reverse transcriptase; assay: Inhibition of HIV1 free wild type reverse transcriptase
[10] = target: T1, Human immunodeficiency virus type 1 reverse transcriptase; assay: Inhibition of HIV1 free reverse transcriptase V179D mutant
[11] = target: T1, Human immunodeficiency virus type 1 reverse transcriptase; assay: Inhibition of HIV1 reverse transcriptase V179D mutant/poly(rA)/oligo(dT) DNA/dTTP ternary complex
[12] = target: T4, Human immunodeficiency virus type 1 reverse transcriptase; assay: Inhibition of HIV1 reverse transcriptase K103N mutant/poly(rA)/oligo(dT) DNA/dTTP ternary complex
[13] = target: T2, Human immunodeficiency virus type 1 reverse transcriptase; assay: Inhibition of HIV1 free reverse transcriptase L100I mutant
[14] = target: T3, Human immunodeficiency virus type 1 reverse transcriptase; assay: Inhibition of HIV1 wild type reverse transcriptase/poly(rA)/oligo(dT) DNA binary complex
[15] = target: T4, Human immunodeficiency virus type 1 reverse transcriptase; assay: Inhibition of HIV1 free reverse transcriptase K103N mutant
[16] = target: T4, Human immunodeficiency virus type 1 reverse transcriptase; assay: Inhibition of HIV1 reverse transcriptase K103N mutant/poly(rA)/oligo(dT) DNA binary complex

Question: How did the IC50 [1] turn out when `CCC1(c2ccc(CSc3ccccc3)cc2)Oc2ccccc2-n2cccc2C1=O` (racemic) was run?
Answer: Its IC50 is 0.15 µM.

Question: And the IC50 [2]?
Answer: The IC50 was 0.99 µM.

Question: What about the IC50 [3] of the same compound?
Answer: The IC50 was 0.06 µM.

Question: And the IC50 [4]?
Answer: The IC50 was 0.25 µM.

Question: How did the IC50 [1] turn out when `CCC1(c2ccc(CSc3ccc(F)cc3)cc2)Oc2ccccc2-n2cccc2C1=O` (racemic) was run?
Answer: The IC50 was over 40 µM.

Question: And the IC50 [2]?
Answer: The IC50 was over 400 µM.

Question: What about the IC50 [3] of the same compound?
Answer: Its IC50 is 0.25 µM.

Question: What about the IC50 [4] of the same compound?
Answer: The IC50 was 3.35 µM.

Question: Which IC50 [1] does the source give for `CCC1(c2ccc(CSc3ccc(Br)cc3)cc2)Oc2ccccc2-n2cccc2C1=O` (racemic) here?
Answer: The IC50 was 0.29 µM.

Question: What about the IC50 [2] of the same compound?
Answer: Its IC50 is over 400 µM.

Question: What about the IC50 [3] of the same compound?
Answer: The IC50 was 0.06 µM.

Question: And the IC50 [4]?
Answer: The IC50 was 1.16 µM.

Question: With `CCC1(c2ccc(CSc3c(Cl)cccc3Cl)cc2)Oc2ccccc2-n2cccc2C1=O` (racemic) as the compound, how does the IC50 [1] read?
Answer: Its IC50 is over 40 µM.

Question: And the IC50 [2]?
Answer: The IC50 was over 400 µM.

Question: What about the IC50 [3] of the same compound?
Answer: The IC50 was 7.36 µM.

Question: What about the IC50 [4] of the same compound?
Answer: The IC50 was over 400 µM.

Question: Which results are given for `CCC1(c2ccc(CSc3ccc(F)cc3Cl)cc2)Oc2ccccc2-n2cccc2C1=O` (racemic)?
Answer: IC50 [1]: > 40 µM; IC50 [2]: > 400 µM; IC50 [3]: 0.61 µM; IC50 [4]: 20.5 µM

Question: Which results are given for `CCC1(c2ccc(COc3ccccc3)cc2)Oc2ccccc2-n2cccc2C1=O` (racemic)?
Answer: IC50 [2]: 0.2 µM; IC50 [3]: 0.15 µM; IC50 [4]: 0.4 µM

Question: Which results are given for `CCC1(c2ccc(COc3cccc(Cl)c3)cc2)Oc2ccccc2-n2cccc2C1=O` (racemic)?
Answer: IC50 [1]: 0.3 µM; IC50 [2]: 0.25 µM; IC50 [3]: 0.1 µM; IC50 [4]: 0.3 µM

Question: Which Ki [5] does the source give for `CCC1(c2ccc(CSc3ccccc3)cc2)Oc2ccccc2-n2cccc2C1=O` (single isomer, unassigned; (+)) here?
Answer: The Ki was 0.78 µM.

Question: What about the Ki [6] of the same compound?
Answer: The Ki was 0.7 µM.

Question: And the Ki [7]?
Answer: The Ki was 0.1 µM.

Question: And the Ki [8]?
Answer: Its Ki is 0.51 µM.

Question: What about the Ki [9] of the same compound?
Answer: The Ki was 0.42 µM.

Question: What about the Ki [10] of the same compound?
Answer: Its Ki is 0.78 µM.

Question: What about the Ki [11] of the same compound?
Answer: The Ki was 0.54 µM.

Question: What about the Ki [12] of the same compound?
Answer: The Ki was 0.78 µM.

Question: What about the Ki [13] of the same compound?
Answer: The Ki was 0.7 µM.

Question: What about the Ki [14] of the same compound?
Answer: The Ki was 0.42 µM.

Question: What about the Ki [15] of the same compound?
Answer: The Ki was 1.35 µM.

Question: And the Ki [16]?
Answer: Its Ki is 1.35 µM.

Question: How did the Ki [5] turn out when `CCC1(c2ccc(CSc3ccc(Br)cc3)cc2)Oc2ccccc2-n2cccc2C1=O` (single isomer, unassigned; (+)) was run?
Answer: The Ki was 0.62 µM.

Question: And the Ki [6]?
Answer: The Ki was 1.2 µM.

Question: And the Ki [7]?
Answer: Its Ki is 0.11 µM.

Question: What about the Ki [8] of the same compound?
Answer: Its Ki is 0.03 µM.

Question: And the Ki [9]?
Answer: The Ki was 0.4 µM.

Question: And the Ki [10]?
Answer: The Ki was 0.62 µM.

Question: And the Ki [11]?
Answer: Its Ki is 0.19 µM.

Question: And the Ki [12]?
Answer: Its Ki is 1.04 µM.

Question: What about the Ki [13] of the same compound?
Answer: Its Ki is 1.2 µM.

Question: And the Ki [14]?
Answer: Its Ki is 0.4 µM.

Question: What about the Ki [15] of the same compound?
Answer: The Ki was 2.21 µM.

Question: And the Ki [16]?
Answer: Its Ki is 2.21 µM.

Question: `CCC1(c2ccc(CSc3ccc(F)cc3Cl)cc2)Oc2ccccc2-n2cccc2C1=O` (single isomer, unassigned; (+)) was tested. Which Ki [5] did it give?
Answer: Its Ki is 0.14 µM.

Question: What about the Ki [6] of the same compound?
Answer: The Ki was 0.2 µM.

Question: What about the Ki [7] of the same compound?
Answer: The Ki was 0.01 µM.

Question: And the Ki [8]?
Answer: The Ki was 0.15 µM.

Question: What about the Ki [9] of the same compound?
Answer: The Ki was 0.09 µM.

Question: What about the Ki [10] of the same compound?
Answer: Its Ki is 0.14 µM.

Question: And the Ki [11]?
Answer: Its Ki is 0.12 µM.

Question: And the Ki [12]?
Answer: Its Ki is 0.02 µM.

Question: What about the Ki [13] of the same compound?
Answer: Its Ki is 0.2 µM.

Question: What about the Ki [14] of the same compound?
Answer: The Ki was 0.09 µM.

Question: What about the Ki [15] of the same compound?
Answer: Its Ki is 0.51 µM.

Question: What about the Ki [16] of the same compound?
Answer: Its Ki is 0.51 µM.
